Laboratory results reported in article PMC10485159, “Biochemical functions and structure of Caenorhabditis elegans ZK177.8 protein: Aicardi–Goutières syndrome SAMHD1 dNTPase ortholog” (The Journal of Biological Chemistry, 2023).

Experiments:
ZK177.8^41–565 = target: T1, ZK177.8^41–565 (Caenorhabditis elegans, UniProt Q09374, H134R/D135N); assay: X-ray crystallography, […] Å; type: binding; details: crystals with 1 mM GTP / 10 mM dATP, pH 5.5
T1 construct: gene sahd-1; tetramer in asymmetric unit
T1 sequence (Q09374 41-565 H134R/D135N): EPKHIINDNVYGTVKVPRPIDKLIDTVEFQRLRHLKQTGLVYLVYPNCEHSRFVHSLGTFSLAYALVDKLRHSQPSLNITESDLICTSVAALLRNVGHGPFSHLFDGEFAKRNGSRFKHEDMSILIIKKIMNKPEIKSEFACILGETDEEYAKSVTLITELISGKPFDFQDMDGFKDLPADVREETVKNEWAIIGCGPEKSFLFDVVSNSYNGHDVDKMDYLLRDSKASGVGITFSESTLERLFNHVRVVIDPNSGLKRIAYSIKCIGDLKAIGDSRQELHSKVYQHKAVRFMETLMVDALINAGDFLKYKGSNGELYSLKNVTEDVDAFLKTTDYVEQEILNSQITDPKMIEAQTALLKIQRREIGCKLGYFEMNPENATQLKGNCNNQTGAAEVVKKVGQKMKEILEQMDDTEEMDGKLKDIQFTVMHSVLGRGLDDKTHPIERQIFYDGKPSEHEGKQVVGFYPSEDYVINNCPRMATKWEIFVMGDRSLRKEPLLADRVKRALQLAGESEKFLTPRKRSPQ

hSAMHD1 = target: T2, hSAMHD1 (Homo sapiens, UniProt Q9Y3Z3); assay: formaldehyde cross-linking, dGTP-induced tetramerization, SDS-PAGE; type: binding; details: 2 mM dGTP, 10 μM protein, 50 mM KCl, 5 mM MgCl2, pH 7.5; allosteric activator; dGTPase activity also compared in supplement Fig. S3
T2 construct: gene SAMHD1; purified human SAMHD1; construct not described; dGTP-induced tetramer
T2 sequence (Q9Y3Z3 whole entry): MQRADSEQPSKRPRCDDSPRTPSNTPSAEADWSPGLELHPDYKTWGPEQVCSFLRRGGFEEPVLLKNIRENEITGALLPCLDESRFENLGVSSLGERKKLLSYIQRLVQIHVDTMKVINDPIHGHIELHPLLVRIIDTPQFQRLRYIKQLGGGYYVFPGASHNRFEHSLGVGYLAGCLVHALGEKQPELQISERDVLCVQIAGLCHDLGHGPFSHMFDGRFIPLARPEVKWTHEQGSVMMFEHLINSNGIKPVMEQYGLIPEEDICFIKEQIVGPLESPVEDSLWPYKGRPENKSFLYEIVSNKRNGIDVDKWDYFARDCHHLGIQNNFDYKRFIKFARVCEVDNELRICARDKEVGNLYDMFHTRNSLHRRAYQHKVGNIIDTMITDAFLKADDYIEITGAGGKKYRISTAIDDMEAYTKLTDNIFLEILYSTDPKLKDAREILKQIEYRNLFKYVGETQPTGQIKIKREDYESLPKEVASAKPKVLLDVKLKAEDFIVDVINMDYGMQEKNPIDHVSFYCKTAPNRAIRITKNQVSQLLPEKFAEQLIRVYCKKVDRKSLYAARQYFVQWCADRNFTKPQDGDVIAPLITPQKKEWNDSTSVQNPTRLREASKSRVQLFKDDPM

**Q.** With Nc1nc2c(ncn2[C@@H]2O[C@H](COP(=O)(O)OP(=O)(O)OP(=O)(O)O)[C@@H](O)[C@H]2O)c(=O)[nH]1 [GTP] as the compound, how does the “X-ray crystallography, 1.81 Å” value (ZK177.8^41–565; allosteric site A1 at tetramer interface) read?
**A.** Its value is “Two nucleotides, GTP and dATP, occupy the allosteric site located at the tetramer interface”.

**Q.** Nc1ncnc2c1ncn2[C@H]1C[C@H](O)[C@@H](COP(=O)(O)OP(=O)(O)OP(=O)(O)O)O1 [dATP] was tested. Which “X-ray crystallography, 1.81 Å” value (ZK177.8^41–565; catalytic site, unhydrolysed, no catalytic metal, also bound at allosteric site A2) did it give?
**A.** The value was “within each monomer, a dATP molecule occupies its catalytic site”.

**Q.** Nc1nc2c(ncn2[C@H]2C[C@H](O)[C@@H](COP(=O)(O)OP(=O)(O)OP(=O)(O)O)O2)c(=O)[nH]1 [dGTP] was tested. Which “formaldehyde cross-linking, dGTP-induced tetramerization, SDS-PAGE” value (hSAMHD1) did it give?
**A.** The value was “we detected the tetramer formation of hSAMHD1 protein only in the presence of dGTP”.
